# In patent publication US4803275A, “2-oxo-5-methyl-6-[4-heptene]-2H-pyrano[3,2-c]pyridine” (Takeda Chemical Industries, Ltd., priority 1986, dated 1989):
# What was measured:
# [1] = system: synthesis of fatty acid (rat liver homogenates); assay: Inhibitory activity of the synthesis of fatty acid (rat liver homogenates, 1-14C-acetate); format: biochemical, rat (SD-strain); details: vs. no addition of the inhibiting agent, 37° C., 60 min
# Method: Determination of the Inhibitory activity of the synthesis of fatty acid was conducted by using homogenates prepared from rat livers. Preparation of the rat liver homogenates, composition of the reaction solution for determination of inhibitory activity and method of the determination were in accordance with the method by J. Iliffe et al. described on "Biochemical Journal" 91, 369 (1964) and the method by T. Kariya et al. described on "Biochemical and Biophysical Research Communications" 80, 1022 (1978). More specifically, SD-strain male rats (6-week old) had been fasted for 2 days and then refed for 24 hours. They were killed by blood letting. The livers were then removed immediately, to which was added a 0.25M sucrose solution containing 2 mM EDTA, 5 mM nicotinamide and 1 mM 2-mercaptoethanol so that the final volume of the solution may be 4 ml relative to 1 g of the wet weight of the livers. […]
# Into a 10 ml flask containing 1.85 ml of a reaction mixture consisting of 45 mM of tris-HCl buffer (pH 7.4), 10 mM of KHCO3, 4 mM of MgCl2, 45 mM of KCl, 5 mM of K2 HPO4, 15 mM of potassium citrate, 1 mM of NADP, 2 mM of ATP, 5 mM of glucose-6-phosphate, 0.4 mM of coenzyme A, 5 mM of dithiothreitol and 0.5 ml of the enzyle solution, was blown a mixture gas (95% O2 :5% CO2). […] The radio-activity extracted into the petroleum ether layer was measured.
# [2] = system: Aspergillus niger IFO 4066; assay: Antimicrobial activity; format: cell-based; details: IFO4066, TSA medium containing 1% glucose, read-out: Minimum Inhibitory Concentration (MIC)
# [3] = system: Bacillus subtilis PCI 219; assay: Antimicrobial activity; format: cell-based; details: PCI219, TSA medium containing 1% glucose, read-out: Minimum Inhibitory Concentration (MIC)
# [4] = system: Pseudomonas aeruginosa IFO 3080; assay: Antimicrobial activity; format: cell-based; details: IFO3080, TSA medium containing 1% glucose, read-out: Minimum Inhibitory Concentration (MIC)
# [5] = system: Penicillium chrysogenum IFO 4626; assay: Antimicrobial activity; format: cell-based; details: IFO4626, TSA medium containing 1% glucose, read-out: Minimum Inhibitory Concentration (MIC)
# Solubility = format: physicochemical
# [6] = system: Proteus vulgaris IFO 3045; assay: Antimicrobial activity; format: cell-based; details: IFO3045, TSA medium containing 1% glucose, read-out: Minimum Inhibitory Concentration (MIC)
# [7] = system: Candida parakrusei IFO 0640; assay: Antimicrobial activity; format: cell-based; details: IFO0640, TSA medium containing 1% glucose, read-out: Minimum Inhibitory Concentration (MIC)
# [8] = system: Cryptococcus neoformans IFO 0410; assay: Antimicrobial activity; format: cell-based; details: IFO0410, TSA medium containing 1% glucose, read-out: Minimum Inhibitory Concentration (MIC)
# [9] = system: Trichophyton mentagrophytes IFO 7522; assay: Antimicrobial activity; format: cell-based; details: IFO7522, TSA medium containing 1% glucose, read-out: Minimum Inhibitory Concentration (MIC)
# Candida krusei IFO 1395 = assay: Antimicrobial activity; format: cell-based; details: Pichia kudriavzevii, IFO1395, TSA medium containing 1% glucose, read-out: Minimum Inhibitory Concentration (MIC)
# Escherichia coli K 12 = assay: Antimicrobial activity; format: cell-based; details: K12, TSA medium containing 1% glucose, read-out: Minimum Inhibitory Concentration (MIC)
# Bacillus cereus IFO 3514 = assay: Antimicrobial activity; format: cell-based; details: IFO3514, TSA medium containing 1% glucose, read-out: Minimum Inhibitory Concentration (MIC)
# [10] = system: Candida albicans IFO 0583; assay: Antimicrobial activity; format: cell-based; details: IFO0583, TSA medium containing 1% glucose, read-out: Minimum Inhibitory Concentration (MIC)
# [11] = system: Candida parapsilosis IFO 1396; assay: Antimicrobial activity; format: cell-based; details: Lodderomyces parapsilosis, IFO1396, TSA medium containing 1% glucose, read-out: Minimum Inhibitory Concentration (MIC)
# Candida utilis IFO 0619 = assay: Antimicrobial activity; format: cell-based; details: Williopsis jadinii, IFO0619, TSA medium containing 1% glucose, read-out: Minimum Inhibitory Concentration (MIC)
# [12] = system: Saccharomyces cerevisiae IFO 0209; assay: Antimicrobial activity; format: cell-based; details: IFO0209, TSA medium containing 1% glucose, read-out: Minimum Inhibitory Concentration (MIC)
# Pyricularia oryzae P-18 = assay: microbe, parasite or virus in culture; format: cell-based; details: P18, read-out: Minimum Inhibitory Concentration (MIC)
# [13] = system: Trichophyton rubrum IFO 5467; assay: Antimicrobial activity; format: cell-based; details: IFO5467, TSA medium containing 1% glucose, read-out: Minimum Inhibitory Concentration (MIC)
# [14] = Acute toxicity, single intraperitoneal dose in mice; details: mouse, in vivo, ip
# [15] = system: Rhodotorula rubra IFO 0907; assay: Antimicrobial activity; format: cell-based; details: IFO0907, TSA medium containing 1% glucose, read-out: Minimum Inhibitory Concentration (MIC)
# [16] = system: Staphylococcus aureus FDA 209 P; assay: Antimicrobial activity; format: cell-based; details: FDA209, TSA medium containing 1% glucose, read-out: Minimum Inhibitory Concentration (MIC)
# [17] = system: Candida tropicalis IFO 0006; assay: Antimicrobial activity; format: cell-based; details: IFO0006, TSA medium containing 1% glucose, read-out: Minimum Inhibitory Concentration (MIC)
structure (smiles),measurement,setting,value
CCC/C=C/CCC1Oc2cc[nH]c(=O)c2C=C1C (stereo not drawn) [FA-4283],inhibitory activity of the synthesis of fatty acid,[1]; 5×10^-4 M,97%
same,inhibition of the synthesis of fatty acid,[1]; 10^-3 M,98%
same,MIC,[2],> 100 µg/mL
same,MIC,[3],> 100 µg/mL
same,MIC,[4],> 100 µg/mL
same,MIC,[5],> 100 µg/mL
same,Solubility,Solubility; chloroform,readily soluble
same,Solubility,Solubility; diethyl ether,soluble
same,Solubility,Solubility; dimethyl sulfoxide,readily soluble
same,Solubility,Solubility; dimethyl-formamide,readily soluble
same,Solubility,Solubility; ethanol,readily soluble
same,Solubility,Solubility; ethyl acetate,soluble
same,Solubility,Solubility; methanol,readily soluble
same,Solubility,Solubility; n-hexane,sparingly soluble
same,Solubility,Solubility; petroleum ether,sparingly soluble
same,Solubility,Solubility; water,insoluble
same,MIC,[6],> 100 µg/mL
same,MIC,[7],> 100 µg/mL
same,MIC,[8],25 µg/mL
same,MIC,[9],6.25 µg/mL
same,MIC,Candida krusei IFO 1395,> 100 µg/mL
same,MIC,Escherichia coli K 12,> 100 µg/mL
same,MIC,Bacillus cereus IFO 3514,> 100 µg/mL
same,MIC,[10],3.13 µg/mL
same,MIC,[11],> 100 µg/mL
same,MIC,Candida utilis IFO 0619,3.13 µg/mL
same,MIC,[12],> 100 µg/mL
same,MIC,Pyricularia oryzae P-18,3.18 µg/mL
same,MIC,[13],6.25 µg/mL
same,LD50,[14],≥ 400 mg/kg
same,MIC,[15],0.39 µg/mL
same,MIC,[16],> 100 µg/mL
same,MIC,[17],50 µg/mL
